For series [1], the system named is Plutella xylostella (Diamond-back Moth). The series is described as follows: whole plant or invertebrate. The series is classed as in vivo. As to conditions: foliar, read-out: mortality of larvae of Plutella xylostella. A digest of the protocol: (§1)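 Compounds were diluted in 50% aqueous acetone and sprayed in a Potter Tower onto turnip leaf discs in agar, each infested with 10 larvae (2nd instar Plutella, 3rd instar Phaedon), with four replicates per treatment. Mean percentage larval mortality was scored 4–5 days later at 25 °C.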

Series [2] concerns Phaedon cochleariae (Mustard Beetle). The series is described as follows: Test 3 a): leaf disc spray test, Phaedon cochleariae larvae. Type of series: in vivo. As to conditions: Phaedon cochleariae, foliar, read-out: mortality of larvae of Phaedon cochleariae. A digest of the protocol: as §1
The test system of series [3] is Megoura viciae (Vetch Aphid). Put plainly: Test 3 b): spray of infested tic bean plants, Megoura viciae. The series is classed as in vivo. As to conditions: for mortality at 50 ppm: Megoura viciae, read-out: mortality of Megoura viciae; for score from 4 replicates, Megoura viciae: Test 3 method (b), application of 50 ppm, score 0-3 per replicate, maximum 12. Here is the method: One or more dilutions of the compounds to be tested were made in 50% aqueous acetone.
b) Megoura viciae (Vetch Aphid)
Potted tic bean plants previously infected with mixed stages of Megoura were sprayed to run-off using a laboratory turntable sprayer. Treated plants were held in a greenhouse for 2 days and were assessed for aphid mortality using a scoring system, judging the response in comparison with plants treated with 50% aqueous acetone alone, as controls.

With `N#Cc1nn(-c2c(Cl)cc(C(F)(F)F)cc2Cl)c(N)c1SC(F)(F)C(F)Cl` (stereo not shown), the melting point lay in the range of 116 to 118 °C.

As for `N#Cc1nn(-c2c(Cl)cc(C(F)(F)F)cc2Cl)c(Br)c1[N+](=O)[O-]`, the melting point was 147 to 150 °C.

In turn, `N#Cc1nn(-c2c(Cl)cc(C(F)(F)F)cc2Cl)c(NC(=O)C(Cl)Cl)c1C#N` registered a melting point of 186 to 187 °C.

As to `CCC(=O)Nc1c(C#N)c(C#N)nn1-c1c(Cl)cc(C(F)(F)F)cc1Cl`, the melting point lay within 188 to 189 °C. On the same count and under the same terms, the figure for `N#Cc1nn(-c2c(Cl)c(F)c(C(F)(F)F)c(F)c2Cl)c(N)c1C#N` is 245 to 247 °C; for `CNc1c(C#N)c(C#N)nn1-c1c(Cl)cc(C(F)(F)F)cc1Cl` it is 165 to 166 °C; for `CCNc1c(C#N)c(C#N)nn1-c1c(Cl)cc(C(F)(F)F)cc1Cl` it is 245 to 246 °C. For the molecule `CN(C)c1c([S+]([O-])C(F)(F)F)c(C#N)nn1-c1c(Cl)cc(C(F)(F)F)cc1Cl` (stereo not shown), the melting point fell in the range of 154 to 161 °C. `N#Cc1nn(-c2c(Cl)cc(C(F)(F)F)cc2Cl)c(Br)c1[S+]([O-])C(F)(F)F` (stereo not shown): the melting point fell in the range of 147 to 148 °C. In turn, `CCCOC=Nc1c(C#N)c(C)nn1-c1c(Cl)cc(C(F)(F)F)cc1Cl` [Compound 119, 4-Cyano-1-(2,6-dichloro-4-trifluoromethylphenyl)-3-methyl-5-propoxymethyleneaminopyrazole] yielded a melting point of 77 to 79 °C.

Take `N#Cc1nn(-c2c(F)c(F)c(C(F)(F)F)c(F)c2F)c(N)c1C#N` [Compound 126, 5-Amino-3,4-dicyano-1-(2,3,5,6-tetrafluoro-4-trifluoromethylphenyl)pyrazole]: the melting point is 262 to 263 °C. Consider `CCOC=Nc1c(C#N)c(C(F)(F)F)nn1-c1c(Cl)cc(C(F)(F)F)cc1Cl` [Compound 135, 4-Cyano-1-(2,6-dichloro-4-trifluoromethylphenyl)-5-ethoxymethyleneamino-3-trifluoromethylpyrazole], for which the melting point lay in the range of 160 to 162 °C. Molecule `N#Cc1c(CF)nn(-c2c(Cl)cc(C(F)(F)F)cc2Cl)c1N` [Compound 142, 5-Amino-4-cyano-1-(2,6-dichloro-4-trifluoromethylphenyl)-3-fluoromethylpyrazole] gave a melting point of 139 to 141 °C. `N#Cc1nn(-c2c(F)c(F)c(C(F)(F)F)c(F)c2Cl)c(N)c1C#N` [Compound 157, 5-Amino-1-(2-chloro-3,5,6-trifluoro-4-trifluoromethylphenyl)-3,4-dicyanopyrazole] had a melting point of 242 to 243 °C.

Consider `N#Cc1nn(-c2c(Cl)cc(OC(F)(F)F)cc2Cl)c(N)c1C#N` [Compound 159, 5-Amino-1-(2,6-dichloro-4-trifluoromethoxyphenyl)-3,4-dicyanopyrazole], for which the melting point lay within 231 to 232 °C.

Regarding `CCOC(=O)c1c(C)nn(-c2c(Cl)cc(C(F)(F)F)cc2Cl)c1N` [Compound 162, 5-Amino-1-(2,6-dichloro-4-trifluoromethylphenyl)-3-methyl-4-ethoxycarbonylpyrazole], the melting point is 115 to 118 °C.

On to `Cc1nn(-c2c(Cl)cc(OC(F)(F)F)cc2Cl)c(N)c1S(C)(=O)=O` [Compound 163, 5-Amino-1-(2,6-dichloro-4-trifluoromethoxyphenyl)-4-methanesulphonyl-3-methylpyrazole], for which the melting point fell in the range of 180 to 181 °C. Still for that read-out and setting: the figure for `N#Cc1c(C(F)(F)F)nn(-c2c(Cl)c(F)c(C(F)(F)F)c(F)c2Cl)c1N` [Compound 167, 5-Amino-4-cyano-1-(2,6-dichloro-3,5-difluoro-4-trifluoromethylphenyl)-3-trifluoromethylpyrazole] is 176 to 177 °C; for `CCOC(C)=Nc1c(C#N)c(C)nn1-c1c(Cl)cc(C(F)(F)F)cc1Cl` [Compound 168, 4-Cyano-1-(2,6-dichloro-4-trifluoromethylphenyl)-5-(1-ethoxyethylideneamino)-3-methylpyrazole] it is 50 to 53 °C. As to `Cc1nn(-c2c(Cl)cc(C(F)(F)F)cc2Cl)c(N2C(=O)CCC2=O)c1C#N` [Compound 169, 4-Cyano-1-(2,6-dichloro-4-trifluoromethylphenyl)-3-methyl-5-succinimidopyrazole], the melting point was in the range of 202 to 204 °C. As to `CC(=O)Nc1c(S(C)(=O)=O)c(C(F)(F)F)nn1-c1c(Cl)cc(C(F)(F)F)cc1Cl` [Compound 170, 5-Acetamido-1-(2,6-dichloro-4-trifluoromethylphenyl)-4-methanesulphonyl-3-trifluoromethylpyrazole], the melting point was 194 to 195 °C. Same read-out and setting: next, `N#Cc1nn(-c2c(Cl)cc([N+](=O)[O-])cc2Cl)c(N)c1C#N` [Compound 172, 5-Amino-1-(2,6-dichloro-4-nitrophenyl)-3,4-dicyanopyrazole]: 289 to 290 °C. `CCOC(=O)N(C)c1c(C#N)c(C(F)(F)F)nn1-c1c(Cl)cc(C(F)(F)F)cc1Cl` [Compound 175, 4-Cyano-1-(2,6-dichloro-4-trifluoromethylphenyl)-5-(N-methyl-N-ethoxycarbonylamino)-3-trifluoromethylpyrazole] gave a melting point of 88 to 90 °C. The same measure, in the same setting: next, `CC(=O)Nc1c([N+](=O)[O-])c(C(F)(F)F)nn1-c1c(Cl)cc(C(F)(F)F)cc1Cl` [Compound 192, 5-Acetamido-1-(2,6-dichloro-4-trifluoromethylphenyl)-4-nitro-3-trifluoromethylpyrazole]: 194 to 195 °C; `N#Cc1c(C(F)(F)F)nn(-c2c(Cl)cc(C(F)(F)F)cc2Cl)c1SC(F)(F)F` [Compound 208, 4-Cyano-1-(2,6-dichloro-4-trifluoromethylphenyl)-3-trifluoromethyl-5-trifluoromethylthiopyrazole]: 120 to 122 °C. Consider `N#Cc1c(C(F)(F)F)nn(-c2c(Cl)cc(C(F)(F)F)cc2Cl)c1C(=O)O` [Compound 209, 5-Carboxy-4-cyano-1-(2,6-dichloro-4-trifluoromethylphenyl)-3-trifluoromethylpyrazole], for which the melting point lay within 177 to 179 °C. As for `CS(=O)(=O)c1c(C#N)nn(-c2c(Cl)cc(C(F)(F)F)cc2Cl)c1N` [Compound 214, 5-Amino-3-cyano-1-(2,6-dichloro-4-trifluoromethylphenyl)-4-methanesulphonylpyrazole], in series [1], the mortality at 500 ppm came to 100%. Also, the mortality at 5 ppm in series [2] was found to be 100%. In addition, in series [3], the mortality at 50 ppm was determined as 100% and the “score from 4 replicates, Megoura viciae” value came out at 12. `CC(=O)c1cn(-c2c(Cl)cc(C(F)(F)F)cc2Cl)nc1C(F)(F)F` [Compound 215, 4-Acetyl-1-(2,6-dichloro-4-trifluoromethylphenyl)-3-trifluoromethylpyrazole] yielded a melting point of 134 °C. `CC[S+]([O-])c1c(C)nn(-c2c(Cl)cc(C(F)(F)F)cc2Cl)c1N` (stereo not shown) [Compound 218, 5-Amino-1-(2,6-dichloro-4-trifluoromethylphenyl)-4-ethylsulphinyl-3-methylpyrazole]: the melting point lay in the range of 157 to 158 °C. Consider `N#Cc1c(C(F)(F)F)nn(-c2c(Cl)cc([S+]([O-])C(F)(F)F)cc2Cl)c1N` (stereo not shown) [Compound 219, 5-Amino-4-cyano-1-(2,6-dichloro-4-trifluoromethylsulphinylphenyl)-3-trifluoromethylpyrazole], for which the mortality at 500 ppm in series [1] is 100%. The mortality at 5 ppm in series [2] was 100%. In addition, in series [3], the mortality at 50 ppm is 100% and the “score from 4 replicates, Megoura viciae” value turned out to be 12. In turn, `CCS(=O)(=O)c1c(C)nn(-c2c(Cl)cc(C(F)(F)F)cc2Cl)c1N` [Compound 222, 5-Amino-1-(2,6-dichloro-4-trifluoromethylphenyl)-4-ethylsulphonyl-3-methylpyrazole] gave a melting point of 193 °C. Regarding `CCCS(=O)(=O)c1c(C)nn(-c2c(Cl)cc(C(F)(F)F)cc2Cl)c1N` [Compound 223, 5-Amino-1-(2,6-dichloro-4-trifluoromethylphenyl)-3-methyl-4-propanesulphonylpyrazole], the melting point fell in the range of 145.5 to 147 °C. As to `CCCSc1c(C)nn(-c2c(Cl)cc(C(F)(F)F)cc2Cl)c1N` [Compound 227, 5-Amino-1-(2,6-dichloro-4-trifluoromethylphenyl)-4-n-propylthio-3-methylpyrazole], the melting point lay within 100 to 102 °C. For `CCSc1c(C(F)(F)F)nn(-c2c(Cl)cc(C(F)(F)F)cc2Cl)c1N` [Compound 228, 5-Amino-1-(2,6-dichloro-4-trifluoromethylphenyl)-4-ethylthio-3-trifluoromethylpyrazole], in series [1], the mortality at 500 ppm was 100%. Besides, the mortality at 5 ppm in series [2] was 100%. In series [3], the mortality at 50 ppm stood at 100% and the “score from 4 replicates, Megoura viciae” value is 12. On to `N#CSc1c(C(F)(F)F)nn(-c2c(Cl)cc(C(F)(F)F)cc2Cl)c1N` [Compound 230, 5-Amino-1-(2,6-dichloro-4-trifluoromethylphenyl)-4-thiocyanato-3-trifluoromethylpyrazole], for which the melting point is 49 to 50 °C. On the same count and under the same terms, next, `Cc1nn(-c2c(Cl)cc(C(F)(F)F)cc2Cl)c(N)c1SC#N` [Compound 231, 5-Amino-1-(2,6-dichloro-4-trifluoromethylphenyl)-3-methyl-4-thiocyanatopyrazole]: 133.5 °C; `CS(=O)(=O)c1cc(Cl)c(-n2nc(C(F)(F)F)c(C#N)c2N)c(Cl)c1` [Compound 232, 5-Amino-4-cyano-1-(2,6-dichloro-4-methanesulphonylphenyl)-3-trifluoromethylpyrazole]: 270 to 272 °C.

The values are drawn from patent US6372774B1, “Derivatives of N-phenylpyrazoles” (Rhone-Poulenc Agriculture Ltd., priority 1985, dated 2002).
